This note sets out measurements from PubChem BioAssay (NCI).

Several values for one entry are separate records, joined by “and”; a condition that tells them apart may be missing. Equal values may be shown once.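 The compound was tested at five concentrations on cells cultured in 96-well plates, with a 48-hour exposure period. Here, GI50 denotes the concentration required for 50% inhibition of growth. TGI: concentration producing complete growth inhibition.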

Among the test systems are CCRF-CEM leukemia; EKVX NSCLC; HT29 colon; KM12 colon; MDA-MB-231 breast; NCI-H23 lung; NCI-H460 lung; OVCAR-5 ovarian; SK-MEL-2 melanoma; SK-MEL-5 melanoma.
What all share (assay): NCI-60 cell line screen, 48 h

As to `CCCCCCCCCCCCNC(=O)[C@H]1CSC(c2ccc(OC)c(F)c2)N1` (some centres not stated), the GI50 with CCRF-CEM leukemia is 0.225 µM; with EKVX NSCLC, 0.678 µM; with HT29 colon, 0.837 µM; in the experiment on KM12 colon, 0.335 µM; with MDA-MB-231 breast, 0.225 µM; with NCI-H23 lung, 1.6 µM. Moreover, the GI50 with NCI-H460 lung is 1.74 µM; in the experiment on OVCAR-5 ovarian, 1.4 µM; with SK-MEL-2 melanoma, 1.77 µM; in the experiment on SK-MEL-5 melanoma it was 1.27 µM. Besides, the TGI was found to be 0.579 µM in the experiment on CCRF-CEM leukemia; 2 µM in the experiment on EKVX NSCLC; 2.42 µM in the experiment on HT29 colon; 1.14 µM in the experiment with KM12 colon; 0.55 µM in the experiment on MDA-MB-231 breast; 3.27 µM in the experiment on NCI-H23 lung. In addition, the TGI in the experiment on NCI-H460 lung was 3.63 µM; with OVCAR-5 ovarian, 2.72 µM; in the experiment with SK-MEL-2 melanoma, 3.41 µM; in the experiment with SK-MEL-5 melanoma, 2.57 µM.
With `N#CC1(C#N)C2C=CC(C3CCC=C32)C1(C#N)C#N` (configuration not stated), the TGI in the experiment with CCRF-CEM leukemia is above 7.86 µM; with EKVX NSCLC, above 10 µM; with HT29 colon, above 10 µM; in the experiment on KM12 colon it was above 10 µM; with MDA-MB-231 breast, above 10 µM; with NCI-H23 lung, above 10 µM. The TGI with NCI-H460 lung, with OVCAR-5 ovarian, with SK-MEL-2 melanoma and in the experiment with SK-MEL-5 melanoma was above 10 µM each time.
Regarding `Cc1cc(N)c2ccccc2[n+]1CCCCCCCCCC[n+]1c(C)cc(N)c2ccccc21`, the GI50 in the experiment with CCRF-CEM leukemia was 0.635 µM and 1.3 µM; with HT29 colon, 0.223 µM and 1.55 µM; in the experiment on KM12 colon, 0.145 µM; with MDA-MB-231 breast, 0.505 µM; in the experiment with NCI-H23 lung, 0.236 µM and 0.484 µM; in the experiment with NCI-H460 lung it was 0.121 µM. Besides, the GI50 in the experiment with SK-MEL-2 melanoma is 0.674 µM and 1.4 µM; in the experiment on SK-MEL-5 melanoma, 0.0679 µM and 0.367 µM. In addition, the TGI with CCRF-CEM leukemia is 3.53 µM and 16.2 µM and 6.15 µM; with EKVX NSCLC, > 50 µM and 49.4 µM and 26.9 µM; in the experiment on HT29 colon, 1.51 µM and 5.47 µM and 4.62 µM; in the experiment with KM12 colon, 0.65 µM and 1.49 µM; with MDA-MB-231 breast it was > 11.5 µM and 12.7 µM; in the experiment on NCI-H23 lung, > 12.4 µM and 3.96 µM and 3.89 µM. Further, the TGI in the experiment with NCI-H460 lung is 0.516 µM and 1.55 µM; with OVCAR-5 ovarian, 25.5 µM and 7.98 µM; with SK-MEL-2 melanoma, 1.93 µM and 9.03 µM and 3.78 µM.
For `COc1ccc(N=C2NN=C(c3c[nH]c4ccccc34)CS2)cc1OC`, the GI50 in the experiment on CCRF-CEM leukemia is 3.7 µM; with EKVX NSCLC it was 8.77 µM; with HT29 colon it was 4.01 µM; with KM12 colon, 3.05 µM; in the experiment with MDA-MB-231 breast, 8.73 µM; with NCI-H23 lung, 13.5 µM. The GI50 in the experiment on NCI-H460 lung was 4.11 µM; in the experiment on OVCAR-5 ovarian, above 70.6 µM; in the experiment with SK-MEL-2 melanoma it was above 100 µM; with SK-MEL-5 melanoma, 3.6 µM. Moreover, the TGI was above 100 µM in the experiment on CCRF-CEM leukemia; above 100 µM with EKVX NSCLC; above 43.6 µM in the experiment with HT29 colon; above 84.2 µM with KM12 colon; above 100 µM in the experiment with MDA-MB-231 breast; above 93.2 µM in the experiment on NCI-H23 lung. Also, the TGI in the experiment with NCI-H460 lung is above 45.2 µM; in the experiment on OVCAR-5 ovarian, above 100 µM; in the experiment with SK-MEL-2 melanoma, above 100 µM; with SK-MEL-5 melanoma it was 23.4 µM.
On to `CN(C)c1ccc(Sc2ccc3nc(N)nc(N)c3c2)cc1`, for which the GI50 was 0.906 µM in the experiment on CCRF-CEM leukemia; 2.27 µM in the experiment on EKVX NSCLC; 0.453 µM with HT29 colon; 1.16 µM in the experiment with KM12 colon; 2.23 µM in the experiment on MDA-MB-231 breast; 0.665 µM with NCI-H23 lung. The GI50 in the experiment on NCI-H460 lung was 0.174 µM; in the experiment on OVCAR-5 ovarian it was 1.16 µM; in the experiment with SK-MEL-2 melanoma, 3.84 µM; with SK-MEL-5 melanoma, 0.503 µM. Also, the TGI worked out at 30.1 µM in the experiment on CCRF-CEM leukemia; 23.5 µM with EKVX NSCLC; 12 µM with HT29 colon; 12.2 µM in the experiment on KM12 colon; 14.1 µM with MDA-MB-231 breast; 18 µM in the experiment on NCI-H23 lung. In addition, the TGI is 2.71 µM in the experiment on NCI-H460 lung, 21 µM in the experiment on OVCAR-5 ovarian, 16.1 µM in the experiment with SK-MEL-2 melanoma and 4.78 µM in the experiment on SK-MEL-5 melanoma.
With `OCCCCC#Cc1ccccc1C#Cc1cnccn1`, the GI50 with CCRF-CEM leukemia was 26.9 µM; in the experiment with EKVX NSCLC, 36.5 µM; in the experiment with HT29 colon it was 27.6 µM; in the experiment on KM12 colon, 36.2 µM; with MDA-MB-231 breast it was 18 µM; in the experiment with NCI-H23 lung, 40.8 µM. Moreover, the GI50 was 27.4 µM with NCI-H460 lung, 47.7 µM in the experiment with OVCAR-5 ovarian, 70.7 µM in the experiment on SK-MEL-2 melanoma and 38.2 µM in the experiment on SK-MEL-5 melanoma. For the same compound, the TGI is above 100 µM in the experiment on CCRF-CEM leukemia; 95.3 µM with EKVX NSCLC; above 100 µM in the experiment on HT29 colon; above 100 µM in the experiment with KM12 colon; 54.9 µM in the experiment on MDA-MB-231 breast; above 100 µM in the experiment on NCI-H23 lung. Besides, the TGI in the experiment with NCI-H460 lung was 96.9 µM; with OVCAR-5 ovarian it was above 100 µM; in the experiment with SK-MEL-2 melanoma, above 100 µM; in the experiment with SK-MEL-5 melanoma it was above 100 µM.
For the compound `COC(=O)Nc1nc2ccc(Sc3ccc(NC(=O)Nc4cc(C(F)(F)F)ccc4F)cc3)cc2[nH]1`, the GI50 is 3.3 µM in the experiment with CCRF-CEM leukemia; 4 µM in the experiment on EKVX NSCLC; 1.4 µM in the experiment with HT29 colon; 0.113 µM with KM12 colon; 2.84 µM in the experiment on MDA-MB-231 breast; 3.84 µM in the experiment on NCI-H23 lung. The GI50 in the experiment on NCI-H460 lung is 2.73 µM; in the experiment on OVCAR-5 ovarian, 3.5 µM; in the experiment on SK-MEL-2 melanoma, 3.15 µM; in the experiment with SK-MEL-5 melanoma, 0.95 µM. Besides, the TGI stood at 12.5 µM in the experiment on CCRF-CEM leukemia; 21.8 µM in the experiment on EKVX NSCLC; 4.54 µM with HT29 colon; 3.99 µM with KM12 colon; 9.32 µM with MDA-MB-231 breast; 11.9 µM with NCI-H23 lung. Further, the TGI in the experiment with NCI-H460 lung was 6.79 µM; in the experiment on OVCAR-5 ovarian, 9.24 µM; in the experiment with SK-MEL-2 melanoma, 10.6 µM; in the experiment with SK-MEL-5 melanoma, 11.7 µM.
For the compound `CC(=O)C1=C(O)/C(=C\c2ccco2)OC1=O`, the TGI in the experiment on CCRF-CEM leukemia, with EKVX NSCLC, in the experiment on HT29 colon, with KM12 colon, in the experiment with MDA-MB-231 breast and in the experiment with NCI-H23 lung was above 10 µM in each case. Moreover, the TGI with NCI-H460 lung, in the experiment on OVCAR-5 ovarian, with SK-MEL-2 melanoma and in the experiment with SK-MEL-5 melanoma was above 10 µM throughout.
